Reference: US20040087571A1, “Methods of using CCR1 antagonists as immunomodulatory agents” (Pfizer Inc, priority 2002, published 2004)

| melting point | SMILES |
| --- | --- |
| 114 to 115 °C | COc1ccc(CNC(=O)[C@H](CCC(C)(C)F)C[C@H](O)[C@H](Cc2ccccc2)NC(=O)c2cnc3ccccc3n2)cc1 [Example 236, Quinoxaline-2-carboxylic acid [1(S)-benzyl-7-fluoro-2(S)-hydroxy-4(R)-(4-methoxy-benzylcarbamoyl)-7-methyl-octyl]-amide] |
| 190 to 191 °C | NC(=O)[C@@H](C[C@H](O)[C@H](Cc1ccccc1)NC(=O)c1cnc2ccccc2n1)C1Cc2ccccc2C1 [Example 192, Quinoxaline-2-carboxylic acid (1(S)-benzyl-4(S)-carbamoyl-2(S)-hydroxy-4-indan-2-yl-butyl)-amide] |
| 182 to 185 °C | NC(=O)[C@H](Cc1ccccc1Cl)C[C@H](O)[C@H](Cc1ccccc1)NC(=O)c1cnc2ccccc2n1 [Example 274, Quinoxaline-2-carboxylic acid [1(S)-benzyl-4(R)-carbamoyl-5-(2-chloro-phenyl)-2(S)-hydroxy-pentyl]-amide] |
| 146 to 148 °C | CC(C)CNC(=O)CC[C@H](O)[C@H](Cc1ccccc1)NC(=O)c1cnc2ccccc2n1 [Example 294, Quinoxaline-2-carboxylic acid (1(S)-benzyl-2(S)-hydroxy-4-isobutylcarbamoyl-butyl)-amide] |
| 215 to 218 °C | CCC(CC)[C@H](C[C@H](O)[C@H](Cc1ccccc1)NC(=O)c1cnc2ccccc2n1)C(N)=O [Example 203, Quinoxaline-2-carboxylic acid (1(S)-benzyl-4(S)-carbamoyl-5-ethyl-2(S)-hydroxy-heptyl)-amide] |
| 130 to 132 °C | O=C(N[C@@H](Cc1ccccc1)[C@@H](O)C[C@H](C(=O)NO)C1(O)C2CCCC1CCC2)c1cnc2ccccc2n1 (stereo partly drawn) [Example 298, Quinoxaline-2-carboxylic acid [1(S)-benzyl-2(S)-hydroxy-4(S)-(9-hydroxy-bicyclo[3.3.1]non-9-yl)-4-hydroxycarbamoyl-butyl]-amide] |
| 206 to 209 °C | NC(=O)[C@H](Cc1ccccc1)C[C@H](O)[C@H](Cc1ccccc1)NC(=O)c1cnc2c(F)cccc2c1 [Example 285, 8-Fluoro-quinoline-3-carboxylic acid (1(S)-benzyl-4(R)-carbamoyl-2(S)-hydroxy-5-phenyl-pentyl)-amide] |
| 187 to 189 °C | CC(C)(F)CC[C@H](C[C@H](O)[C@H](Cc1ccc(Cl)c(Cl)c1)NC(=O)c1cnc2c(F)c(F)ccc2c1)C(N)=O [Example 156, 7,8-Difluoro-quinoline-3-carboxylic acid [4(R)-carbamoyl-1(S)-(3,4-dichloro-benzyl)-7-fluoro-2(S)-hydroxy-7-methyl-octyl]-amide] |
| 138 to 140 °C | CC(C)(F)CC[C@H](C[C@H](O)[C@H](Cc1ccccc1)NC(=O)c1cnc2ccccc2n1)C(=O)NCCc1ccc(O)cc1 [Example 212, Quinoxaline-2-carboxylic acid {1(S)-benzyl-7-fluoro-2(S)-hydroxy-4(R)-[2-(4-hydroxy-phenyl)-ethylcarbamoyl]-7-methyl-octyl}-amide] |
| 210 to 211 °C | CC1(C)CCC(O)([C@H](C[C@H](O)[C@H](Cc2ccccc2)NC(=O)c2cnc3ccccc3n2)C(N)=O)CC1 [Example 304, Quinoxaline-2-carboxylic acid [1(S)-benzyl-4(S)-carbamoyl-2(S)-hydroxy-4-(1-hydroxy-4,4-dimethyl-cyclohexyl)-butyl]-amide] |
| 203 to 206 °C | NC(=O)[C@H](Cc1ccccc1)C[C@H](O)[C@H](Cc1ccccc1)NC(=O)c1cnc2ccccc2c1 [Example 287, Quinoline-3-carboxylic acid (1(S)-benzyl-4(R)-carbamoyl-2(S)-hydroxy-5-phenyl-pentyl)-amide] |
| 206 to 207 °C | NC(=O)[C@H](C[C@H](O)[C@H](Cc1cccs1)NC(=O)c1cnc2ccccc2n1)C1(O)CCCCC1 [Example 268, Quinoxaline-2-carboxylic acid [4(R)-carbamoyl-2(S)-hydroxy-4-(1-hydroxy-cyclohexyl)-1(S)-thiophen-2-ylmethyl-butyl]-amide] |
| 168 to 170 °C | CNC(=O)[C@H](CC(C)C)C[C@H](O)[C@H](Cc1ccc(OS(=O)(=O)C(F)(F)F)cc1)NC(=O)c1cnc2ccccc2c1 [Example 50, Trifluoro-methanesulfonic acid 4-{3(S)-hydroxy-7-methyl-5(R)-methylcarbamoyl-2(S)-[(quinoline-3-carbonyl)-amino]-octyl}-phenyl ester] |
| 126 to 128 °C | NC(=O)[C@@H](C[C@H](O)[C@H](Cc1ccccc1)NC(=O)c1cnc2ccccc2n1)C1CCCC1 [Example 171, Quinoxaline-2-carboxylic acid (1(S)-benzyl-4-carbamoyl-4(S)-cyclopentyl-2(S)-hydroxy-butyl)-amide] |
| 78 to 79 °C | CCSCCNC(=O)[C@H](CCC(C)(C)F)C[C@H](O)[C@H](Cc1ccccc1)NC(=O)c1cnc2ccccc2n1 [Example 218, Quinoxaline-2-carboxylic acid [1(S)-benzyl-4(R)-(2-ethylsulfanyl-ethylcarbamoyl)-7-fluoro-2(S)-hydroxy-7-methyl-octyl]-amide] |
| 90 to 100 °C | NC(=O)C1(C[C@H](O)[C@H](Cc2ccccc2)NC(=O)c2cnc3ccccc3n2)Cc2ccccc2C1 [Example 164, Quinoxaline-2-carboxylic acid [1(S)-benzyl-3-(2-carbamoyl-indan-2-yl)-2(S)-hydroxy-propyl]-amide] |
| 123 to 125 °C | NC(=O)[C@@H](C[C@H](O)[C@H](Cc1ccccc1)NC(=O)c1cnc2ccccc2n1)C1(O)CCSCC1 [Example 269, Quinoxaline-2-carboxylic acid [1(S)-benzyl-4(S)-carbamoyl-2(S)-hydroxy-4-(4-hydroxy-tetrahydro-thiopyran-4-yl)-butyl]-amide] |
| 100 to 104 °C | CC(C)(F)CC[C@H](C[C@H](O)[C@H](Cc1ccccc1)NC(=O)c1cnc2ccccc2n1)C(=O)NCc1ccncc1 [Example 217, Quinoxaline-2-carboxylic acid {1(S)-benzyl-7-fluoro-2(S)-hydroxy-7-methyl-4(R)-[(pyridin-4-ylmethyl)-carbamoyl]-octyl}-amide] |
| 164 to 166 °C | NC(=O)[C@H](Cc1ccc(F)cc1)C[C@H](O)[C@H](Cc1ccccc1)NC(=O)c1cnc2ccccc2n1 [Example 194, Quinoxaline-2-carboxylic acid [1(S)-benzyl-4(R)-carbamoyl-5-(4-fluoro-phenyl)-2(S)-hydroxy-pentyl]-amide] |
| 199 to 201 °C | NC(=O)[C@@H](Cc1ccc(Cl)c(Cl)c1)C[C@H](O)[C@H](Cc1ccccc1)NC(=O)c1cnc2ccccc2n1 [Example 279, Quinoxaline-2-carboxylic acid [1(S)-benzyl-4(S)-carbamoyl-5-(3,4-dichloro-phenyl)-2(S)-hydroxy-pentyl]-amide] |
| 189 to 191 °C | NC(=O)[C@@H](C[C@H](O)[C@H](Cc1ccccc1)NC(=O)c1cnc2ccccc2n1)C1(O)CCCCCC1 [Example 290, Quinoxaline-2-carboxylic acid [1(S)-benzyl-4(S)-carbamoyl-2(S)-hydroxy-4-(1-hydroxy-cycloheptyl)-butyl]-amide] |
| 233 to 235 °C | NC(=O)[C@H](Cc1ccccc1)C[C@H](O)[C@H](Cc1ccccc1)NC(=O)c1cnc2c(F)c(F)ccc2c1 [Example 273, 7,8-Difluoro-quinoline-3-carboxylic acid (1(S)-benzyl-4(R)-carbamoyl-2(S)-hydroxy-5-phenyl-pentyl)-amide] |
| 170 to 172 °C | CNC(=O)[C@H](CC(C)C)C[C@H](O)[C@H](Cc1ccc(O)cc1)NC(=O)c1cnc2ccccc2n1 [Example 65, Quinoxaline-2-carboxylic acid [2(S)-hydroxy-1(S)-(4-hydroxy-benzyl)-6-methyl-4(R)-methylcarbamoyl-heptyl]-amide] |
| 174 to 175 °C | CC(C)(F)CC[C@H](C[C@H](O)[C@H](Cc1ccccc1)NC(=O)c1cnc2ccccc2n1)C(=O)NCc1cccs1 [Example 213, Quinoxaline-2-carboxylic acid {1(S)-benzyl-7-fluoro-2(S)-hydroxy-7-methyl-4(R)-[(thiophen-2-ylmethyl)-carbamoyl]-octyl}-amide] |
| 150 to 153 °C | CC(C)(O)CC[C@H](C[C@H](O)[C@H](Cc1ccc(F)c(F)c1)NC(=O)c1cnc2ccccc2n1)C(=O)NO [Example 322, Quinoxaline-2-carboxylic acid [1(S)-(3,4-difluoro-benzyl)-2(S),7-dihydroxy-4(R)-hydroxycarbamoyl-7-methyl-octyl]-amide] |
| 225 to 227 °C | CC(C)(F)CC[C@H](C[C@H](O)[C@H](Cc1cccc(F)c1)NC(=O)c1cnc2ccccc2n1)C(N)=O [Example 245, Quinoxaline-2-carboxylic acid [4(R)-carbamoyl-7-fluoro-1(S)-(3-fluoro-benzyl)-2(S)-hydroxy-7-methyl-octyl]-amide] |
| 185.5 to 187.5 °C | CC(C)(F)CC[C@H](C[C@H](O)[C@H](Cc1ccc(I)cc1)NC(=O)c1cnc2ccccc2n1)C(N)=O [Example 250, Quinoxaline-2-carboxylic acid [4(R)-carbamoyl-7-fluoro-2(S)-hydroxy-1(S)-(4-iodo-benzyl)-7-methyl-octyl]-amide] |
| 212.5 to 213.5 °C | CNC(=O)[C@H](CC(C)C)C[C@H](O)[C@H](Cc1ccc(Cl)cc1)NC(=O)c1cnc2ccccc2c1 [Example 67, Quinoline-3-carboxylic acid [1(S)-(4-chloro-benzyl)-2(S)-hydroxy-6-methyl-4(R)-methylcarbamoyl-heptyl]-amide] |
| 155.5 to 156.5 °C | CC(C)(F)CC[C@H](C[C@H](O)[C@H](Cc1ccccc1)NC(=O)c1cnc2ccccc2n1)C(=O)NCc1ccco1 [Example 234, Quinoxaline-2-carboxylic acid {1(S)-benzyl-7-fluoro-4(R)-[(furan-2-ylmethyl)-carbamoyl]-2(S)-hydroxy-7-methyl-octyl}-amide] |
| 178 to 180 °C | CNC(=O)C[C@H](C[C@H](O)[C@H](Cc1ccccc1)NC(=O)c1cnc2ccccc2n1)C(=O)NC [Example 151, 2(S)-{2(S)-hydroxy-4-phenyl-3(S)-[(quinoxaline-2-carbonyl)-amino]-butyl}-N1,N4-dimethyl-succinamide] |
